For seven compounds, Ki results are on record in BindingDB's records for doi:10.1016/j.bmcl.2004.08.038 (Glaxosmithkline, 2004).

Each structure is given as a SMILES string. pKi: −log10 of the molar value.

As a reminder, the pKi is the Ki on a negative log10 scale, so that one unit is a factor of ten. Low values mean a large Ki, high ones a small Ki.

In this assay the target is T1, Dimer of Gag-Pol polyprotein [501-599,Q508K,L534I,L564I,C568A,C596A] (Human immunodeficiency virus 1, UniProt P03367, C568A/C596A/L534I/L564I/Q508K).
T1 construct: 501-599
The experiment in a line: Protease Inhibition Assay. The following applies: pH 6.4; 25 °C. The protocol:
The Ki values were determined using fluorogenic substrate, 2-(aminobenzoyl)-Thr-Ile-Nle-Phe(p-NO2)-Gln-ArgNH2. A standard curve relating changes in fluorescent intensity to changes in concentration of product was used to convert fluorescent changes into molar velocities. The amount of cleavage was determined by HPLC.
On to `O=C(N[C@H]1c2ccccc2C[C@H]1O)[C@H](Cc1ccccc1)C[C@H](O)CN1C(=O)N(Cc2ccccn2)C[C@@H]1Cc1ccccc1` [(2R,4S)-2-benzyl-5-[(5S)-5-benzyl-2-oxo-3-(pyridin-2-ylmethyl)imidazolidin-1-yl]-4-hydroxy-N-[(1S,2R)-2-hydroxy-2,3-dihydro-1H-inden-1-yl]pentanamide], for which the negative logarithm of the Ki (pKi) is 7.39.

On to `O=C(N[C@H]1c2ccccc2C[C@H]1O)[C@H](Cc1ccccc1)C[C@H](O)CN1C(=O)N(Cc2cccnc2)C[C@@H]1Cc1ccccc1` [(2R,4S)-2-benzyl-5-[(5S)-5-benzyl-2-oxo-3-(pyridin-3-ylmethyl)imidazolidin-1-yl]-4-hydroxy-N-[(1S,2R)-2-hydroxy-2,3-dihydro-1H-inden-1-yl]pentanamide], for which the negative-log Ki (pKi) was 7.74. Regarding `O=C(N[C@H]1c2ccccc2C[C@H]1O)[C@H](Cc1ccccc1)C[C@H](O)CN1C(=O)N(Cc2ccncc2)C[C@@H]1Cc1ccccc1` [(2R,4S)-2-benzyl-5-[(5S)-5-benzyl-2-oxo-3-(pyridin-4-ylmethyl)imidazolidin-1-yl]-4-hydroxy-N-[(1S,2R)-2-hydroxy-2,3-dihydro-1H-inden-1-yl]pentanamide], the negative-log Ki (pKi) was 6.72. Compound `COc1cc(CN2C[C@H](Cc3ccccc3)N(C[C@@H](O)C[C@@H](Cc3ccccc3)C(=O)N[C@H]3c4ccccc4C[C@H]3O)C2=O)cc(OC)c1OC` [(2R,4S)-2-benzyl-5-[(5S)-5-benzyl-2-oxo-3-[(3,4,5-trimethoxyphenyl)methyl]imidazolidin-1-yl]-4-hydroxy-N-[(1S,2R)-2-hydroxy-2,3-dihydro-1H-inden-1-yl]pentanamide] gave a pKi of 7.00. `O=C(N[C@H]1c2ccccc2C[C@H]1O)[C@H](Cc1ccccc1)C[C@H](O)CN1C(=O)N(Cc2cccc(F)c2)C[C@@H]1Cc1ccccc1` [(2R,4S)-2-benzyl-5-[(5S)-5-benzyl-3-[(3-fluorophenyl)methyl]-2-oxoimidazolidin-1-yl]-4-hydroxy-N-[(1S,2R)-2-hydroxy-2,3-dihydro-1H-inden-1-yl]pentanamide] gave a negative-log Ki (pKi) of 8.49. In turn, `CS(=O)(=O)c1ccc(CN2C[C@H](Cc3ccccc3)N(C[C@@H](O)C[C@@H](Cc3ccccc3)C(=O)N[C@H]3c4ccccc4C[C@H]3O)C2=O)cc1` [(2R,4S)-2-benzyl-5-[(5S)-5-benzyl-3-[(4-methanesulfonylphenyl)methyl]-2-oxoimidazolidin-1-yl]-4-hydroxy-N-[(1S,2R)-2-hydroxy-2,3-dihydro-1H-inden-1-yl]pentanamide] had a negative-log Ki (pKi) of 6.52.

`COc1ccc(CN2C[C@H](Cc3ccccc3)N(C[C@@H](O)C[C@@H](Cc3ccccc3)C(=O)N[C@H]3c4ccccc4C[C@H]3O)C2=O)cc1` [(2R,4S)-2-benzyl-5-[(5S)-5-benzyl-3-[(4-methoxyphenyl)methyl]-2-oxoimidazolidin-1-yl]-4-hydroxy-N-[(1S,2R)-2-hydroxy-2,3-dihydro-1H-inden-1-yl]pentanamide] showed a pKi of 8.25.
